Laboratory results published in patent publication US12030891B2, “Xanthonic compounds and their use as antifouling agents” (CIIMAR—CENTRO INTERDISCIPLINAR DE INVESTIGACAO MARINHA E …, priority 2018, dated 2024).

Assays:
Artemia salina = Artemia salina lethality bioassay; format: in vivo; settings: even at 50 μM, 48 h of exposure
Method: General toxicity to non-target species was evaluated using the brine shrimp (Artemia salina) lethality test (Meyer et al., 1982). A. salina cysts were allowed to hatch in nutrient-enriched seawater for approximately 48 hours at 25° C. Newly hatched instar I nauplii were harvested for toxicity test performed in 96-wells microplates with eight replicates per condition and 15-20 nauplii per well. Test solutions of the most promising sulfated antifouling compounds (50 and 25 μM) were prepared in filtered seawater. K2Cr2O7 (13.6 μM) was included as positive control and DMSO as negative control. Percentage of mortality was determined at 48 h of exposure.

[1] = Luminescent Vibrio fischeri ecotoxicity assay (ISO11348); format: cell-based; settings: luminescent Vibrio fischeri bacteria (NRRL-B-11177), contact time of 30 min, read-out: LC50 (inhibition of light radiation emitted)
Method: Luminescent Vibrio fischeri ecotoxicity assessment (ISO11348) was performed by IK4 TEKNIKER accordingly to the EU hazard assessment of substances and European Ecolabel (ISO 113482). Luminescent Vibrio fischeri bacteria test (NRRL-B-11177) was used as a standard test to evaluate the ecotoxicity of the most promising AF compounds. Vibrio fischeri bacteria from HACH-LANGE GmbH were grown in laboratory in standard conditions according to guidelines and exposed to a dilution serial of each compound (1000, 500, 250, 125, 62.5 mg/L). After 5, 15 and 30 min of exposure, the light emitted as a by-product of Vibrio fischeri cellular respiration was measured at 490 nm. Any inhibition of cellular activity results in a decreased rate of respiration and a corresponding decrease in the rate of luminescence. The decrease of bacterial luminescence measured after 5, 15 or 30 min of exposition was used as test endpoint. Luminescence was measured using a LUMIStox photometer from DR LANGE, after a contact time of 15 min and 30 min at 15±1° C., taking into account a correction factor, fk, which is a measure of intensity change of control samples during the exposure time.
The pH of all samples was within the interval 6.0-8.5. A 2% solution of sodium chloride (NaCl) in deionized water (20 g/L) was used as dilution medium and K2Cr2O7 11.3 μg·mL^−1) was used as positive control.

[2] = tested on: Mytilus galloprovincialis larvae; experiment: Anti-settlement bioassay on xanthonic based marine coatings; format: in vivo; settings: for reduction of larval settlement: polyurethane based marine paint coating (1.7 wt. %); for reduction in the larvae settlement: incorporated in polyurethane (PU) marine paint at 2 wt %
Method: None instead, and depending on the xanthonic chemical functionalities and density, minor adjustments on those proportions were performed, in order to maintain the main coatings properties (e.g. curing time and adhesion). In addition, and to promote the compatibility and homogeneity of the antifoulants in the corresponding polymeric formulations, a prior dissolution step, in accurate pure and dehumidified organic solvents, may be comprised, followed by its addition and blending to the paint components system. The selection and content of the organic solvent must also rely on its compatibility with the components of each polymeric system.
The antifouling effectiveness of xanthonic based marine coating formulations was assessed by an in vivo anti-settlement bioassay on coated culture multiwell plates, using Mytilus galloprovincialis adhesive mussel plantigrades larvae as target species.

[3] = tested on: Phaeodactylum tricornutum; experiment: Algae growth inhibition test (OECD 201); format: cell-based
Method: This test was executed using […], which contains all the material necessary to perform growth inhibition tests with the marine diatom Phaeodactylum Tricornutum. The species of alga Phaeodactylum Tricornutum, were incubated with the testing leaching samples, for 72 hours, in disposable cells of 10 cm path-length. […] This terminology is used instead of the standard EC50 when the test material is not completely soluble at the test treat rates.

Daphnia magna = experiment: Daphnia acute immobilization test (OECD 202); format: in vivo
Method: This test was performed using DAPHTOXKIT F MAGNATM. Daphnia magna are commonly known as water fleas, due to their jumping swimming resemblance to the movement of the fleas. Its short life span and reproductive capabilities make it an ideal organism for analytical use.
The swimming capability of Daphnia Magna was assessed after 48 hours of exposure to the diluted testing samples. The Daphnia were bred in the laboratory and should be no more than 24 hours old. The number of immobilized Daphnia was registered at 24 hours and 48 hours, for the calculation of EL50 and comparison with the control values. The EL50 is the effective concentration of the sample that is expected to cause immobilization to 50% of Daphnia.
Note that for this toxicity test, the leaching was obtained only from the WAF method test using the samples and Daphnia's mineral medium as […] because standard seawater is harmful to Daphnia.

[4] = Leaching test of antifoulant from coatings (adapted from ISO15181); format: physicochemical; settings: PU coating, 45 days submerged in artificial seawater

CC1(C)CCc2cc3c(=O)c4ccccc4oc3c(O)c2O1 [XP13, 12-hydroxy-2,2-dimethyl-3,4-dihydro-2H,6H-pyrano[3,2-b]xanthen-6-one]
toxicity to Artemia salina nauplii (Artemia salina): non-toxic effects
50% inhibition of luminescence concentration (EC50) at 30 min [1]: > 237 µg/mL

COc1cc(C)c2c(=O)c3ccccc3oc2c1OC [XA13, 3,4-dimethoxy-1-methyl-9H-xanthen-9-one]
reduction of larval settlement ([2]; after 40 h): 29%
reduction of larval settlement ([2]; first 15 h): 50%

COc1cc(CN2CCc3c(N)cccc3C2)c2c(=O)c3ccccc3oc2c1OC [XA20, 1-((5-amino-3,4-dihydroisoquinolin-2(1H)-yl)methyl)-3,4-dimethoxy-9H-xanthen-9-one]
50% inhibition of luminescence concentration (EC50) at 30 min [1]: > 300 µg/mL
EL50 (72 h) alga growth inhibition [3]: > 125 µg/mL
EL50 (48 h) immobility (Daphnia magna): > 300 µg/mL

COC(=O)COc1ccc2c(=O)c3ccccc3oc2c1OCC(=O)OC [D3,4 OCH3X, dimethyl 2,2′-((9-oxo-9H-xanthene-3,4-diyl)bis(oxy))diacetate]
toxicity to Artemia salina nauplii (Artemia salina): non-toxic effects

COc1cc(CN2CCCCC2)c2c(=O)c3ccccc3oc2c1OC [XA22, 3,4-dimethoxy-1-(piperidin-1-ylmethyl)-9H-xanthen-9-one]
toxicity to Artemia salina nauplii (Artemia salina): non-toxic effects

COc1cc(CO)c2c(=O)c3ccccc3oc2c1OC [XA12, 1-(hydroxymethyl)-3,4-dimethoxy-9H-xanthen-9-one]
toxicity to Artemia salina nauplii (Artemia salina): non-toxic effects

COc1cc(CN2CCN(CCO)CC2)c2c(=O)c3ccccc3oc2c1OC [XA18, 1-((4-(2-hydroxyethyl)piperazin-1-yl)methyl)-3,4-dimethoxy-9H-xanthen-9-one]
toxicity to Artemia salina nauplii (Artemia salina): non-toxic effects

COc1cc(C=O)c2c(=O)c3ccccc3oc2c1OC [XA11, 3,4-dimethoxy-9-oxo-9H-xanthene-1-carbaldehyde]
toxicity to Artemia salina nauplii (Artemia salina): non-toxic effects

COc1cc(CNCCN2CCOCC2)c2c(=O)c3ccccc3oc2c1OC [XA15, 3,4-dimethoxy-1-(((2-morpholinoethyl)amino)methyl)-9H-xanthen-9-one]
toxicity to Artemia salina nauplii (Artemia salina): non-toxic effects

COc1cc(C(Br)Br)c2c(=O)c3ccccc3oc2c1OC [XA14, 1-(dibromomethyl)-3,4-dimethoxy-9H-xanthen-9-one]
toxicity to Artemia salina nauplii (Artemia salina): non-toxic effects

O=C(O)COc1ccc2c(=O)c3ccccc3oc2c1OCC(=O)O [D3,4 COOHX, 2,2′-((9-oxo-9H-xanthene-3,4-diyl)bis(oxy))diacetic acid]
toxicity to Artemia salina nauplii (Artemia salina): non-toxic effects

O=c1c2ccccc2oc2c(O)c(O)ccc12 [3,4dOHx, 3,4-dihydroxy-9H-xanthen-9-one]
toxicity to Artemia salina nauplii (Artemia salina): non-toxic effects
50% inhibition of luminescence concentration (EC50) at 30 min [1]: > 750 µg/mL
EL50 (72 h) alga growth inhibition [3]: > 100 µg/mL
reduction in the larvae settlement ([2]; after 40 h): about 80%
reduction in the larvae settlement ([2]; after the first 15 h): 55%
incorporated antifoulant leached out of the polymeric matrix [4]: 0.008%
